Measured values from patent publication US9540343B2 (Gilead Sciences, Inc., priority 2011, dated 2017).

Assays:
HIV-IIIb = test: Test A: Antiviral assay in MT4 cells; type: cell-based, HIV-1; settings: Human immunodeficiency virus 1, IIIB, MT4, 120 h, read-out: % inhibition at 2 μM, percent inhibition of virus-induced cell killing, from dose response curve at 2 uM drug; MT-4 cells infected with HIV-IIIb, 5 days, CellTiter-Glo
in vitro = settings: human, uninfected MT-4 cells, CC50 (nM), same protocol as Test A, CellTiter-Glo
In short: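 Cytoprotection read-out: CellTiter-Glo chemiluminescence after 5 days at 37 °C of HIV-IIIb-infected MT-4 cells (m.o.i. 0.003) with compound in 10-point 3-fold dilutions, quadruplicate, 10% FBS. Cytotoxicity (CC50) measured identically without virus.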

SMILES	inhibition at 2 µM (HIV-IIIb)	CC50 at 5 days (in vitro)
NS(=O)(=O)c1cccc(-c2cccnc2[C@H](Cc2cc(F)cc(F)c2)NC(=O)Cc2c[nH]c3ccc(F)cc23)c1 [Example 428, (S)—N-(2-(3,5-difluorophenyl)-1-(3-(3-sulfamoylphenyl)pyridin-2-yl)ethyl)-2-(5-fluoro-1H-indol-3-yl)acetamide]	94%	23000 nM
O=C(Cc1c[nH]c2ccc(F)cc12)N[C@@H](Cc1cc(F)cc(F)c1)c1ncccc1-c1cnc2[nH]ccc2c1 [Example 430, (S)—N-(1-(3-(1H-pyrrolo[2,3-b]pyridin-5-yl)pyridin-2-yl)-2-(3,5-difluorophenyl)ethyl)-2-(5-fluoro-1H-indol-3-yl)acetamide]	31%	26300 nM
O=C(Cc1c[nH]c2ccc(F)cc12)N[C@@H](Cc1cc(F)cc(F)c1)c1ncccc1-c1ccc(OC(F)(F)F)cc1 [Example 431, (S)—N-(2-(3,5-difluorophenyl)-1-(3-(4-(trifluoromethoxy)phenyl)pyridin-2-yl)ethyl)-2-(5-fluoro-1H-indol-3-yl)acetamide]	7%	6390 nM
O=C(Cn1nc(C(F)(F)F)c2c1CCCC2)N[C@@H](Cc1cc(F)cc(F)c1)c1ncccc1-c1ccc(N2CCCC2)nc1 [Example 432, (S)—N-(2-(3,5-difluorophenyl)-1-(6′-(pyrrolidin-1-yl)-3,3′-bipyridin-2-yl)ethyl)-2-(3-(trifluoromethyl)-4,5,6,7-tetrahydro-1H-indazol-1-yl)acetamide]	90%	7990 nM
CS(=O)(=O)Nc1ccc(-c2cccnc2[C@H](Cc2cc(F)cc(F)c2)NC(=O)Cn2nc(C(F)F)c3c2C(F)(F)C2CC32)cc1 (stereo partly drawn) [Example 433, (S)—N-(1-(3-(4-(methylsulfonamido)phenyl)-pyridin-2-yl)-2-(3,5-difluorophenyl)ethyl)-2-(3-(difluoromethyl)-5,6-dihydro-4,5-(methano)-6,6-difluoro-cyclopenta[c]pyrazol-1(4H)-yl)acetamide]	16%	20800 nM
O=C(Cc1c[nH]c2ccc(F)cc12)N[C@@H](Cc1cc(F)cc(F)c1)c1ncccc1-c1ccc(Cl)c(F)c1 [Example 434]	20%	12300 nM
COc1ccc2cc(-c3cccnc3[C@H](Cc3cc(F)cc(F)c3)NC(=O)Cc3c[nH]c4ccc(F)cc34)ccc2c1 [Example 435, (S)—N-(2-(3,5-difluorophenyl)-1-(3-(6-methoxynaphthalen-2-yl)pyridin-2-yl)ethyl)-2-(5-fluoro-1H-indol-3-yl)acetamide]	7%	13900 nM
O=C(Cn1nc(C(F)F)c2c1C(F)(F)C1CC21)N[C@@H](Cc1cc(F)cc(F)c1)c1ncccc1-c1ccc2cnccc2c1 (some centres unmarked) [Example 436]	20%	11300 nM
NC(=O)c1cc(-c2cccnc2[C@H](Cc2cc(F)cc(F)c2)NC(=O)Cn2cc(C(F)(F)F)nc2CO)ccc1F [Example 437, (S)-5-(2-(2-(3,5-difluorophenyl)-1-(2-(2-(hydroxymethyl)-4-(trifluoromethyl)-1H-imidazol-1-yl)acetamido)ethyl)pyridin-3-yl)-2-fluorobenzamide]	3%	> 53200 nM
O=C(Cn1nc(C(F)F)c2c1C(F)(F)C1CC21)N[C@@H](Cc1cc(F)cc(F)c1)c1ncccc1-c1ccc2nccn2c1 (stereo partly drawn) [Example 438, (S)—N-(1-(3-(imidazo[1,2-a]pyridine-6-yl)-pyridin-2-yl)-2-(3,5-difluorophenyl)ethyl)-2-(3-(difluoromethyl)-5,6-dihydro-4,5-(methano)-6,6-difluoro-cyclopenta[c]pyrazol-1(4H)-yl)acetamide]	81%	12100 nM
O=C(Cc1c[nH]c2ccc(F)cc12)N[C@@H](Cc1cc(F)cc(F)c1)c1ncccc1-c1cccnc1 [Example 439, (S)—N-(1-(3,3′-bipyridin-2-yl)-2-(3,5-difluorophenyl)ethyl)-2-(5-fluoro-1H-indol-3-yl)acetamide]	-2%	21700 nM
Cn1cc(-c2cccnc2[C@H](Cc2cc(F)cc(F)c2)NC(=O)Cc2c[nH]c3ccc(F)cc23)cn1 [Example 440, (S)—N-(2-(3,5-difluorophenyl)-1-(3-(1-methyl-1H-pyrazol-4-yl)pyridin-2-yl)ethyl)-2-(5-fluoro-1H-indol-3-yl)acetamide]	82%	21700 nM
O=C(Cc1c[nH]c2ccc(F)cc12)N[C@@H](Cc1cc(F)cc(F)c1)c1ncccc1-c1ccc2nonc2c1 [Example 441, (S)—N-(1-(3-(benzo[c][1,2,5]oxadiazol-5-yl)pyridin-2-yl)-2-(3,5-difluorophenyl)ethyl)-2-(5-fluoro-1H-indol-3-yl)acetamide]	35%	8650 nM
O=C(Cn1nc(C(F)F)c2c1C(F)(F)C1CC21)N[C@@H](Cc1cc(F)cc(F)c1)c1ncccc1-c1cnc2c(c1)CCCN2 (stereo partly drawn) [Example 442, (S)—N-(1-(3-(5,6,7,8-tetrahydro-1,8-naphthyridin-3-yl)-pyridin-2-yl)-2-(3,5-difluorophenyl)ethyl)-2-(3-(difluoromethyl)-5,6-dihydro-4,5-(methano)-6,6-difluoro-cyclopenta[c]pyrazol-1(4H)-yl)acetamide]	79%	8880 nM
CS(=O)(=O)n1cc(CC(=O)N[C@@H](Cc2cc(F)cc(F)c2)c2ncccc2-c2ccc(F)c(C(N)=O)c2)c2cc(F)ccc21 [Example 444, (S)-5-(2-(2-(3,5-difluorophenyl)-1-(2-(5-fluoro-1-(methylsulfonyl)-1H-indol-3-yl)acetamido)ethyl)pyridin-3-yl)-2-fluorobenzamide]	23%	15500 nM
NC(=O)c1cc(-c2cccnc2[C@H](Cc2cc(F)cc(F)c2)NC(=O)Cc2c[nH]c3ccc(Br)cc23)ccc1F [Example 445, (S)-5-(2-(1-(2-(5-bromo-1H-indol-3-yl)acetamido)-2-(3,5-difluorophenyl)ethyl)pyridin-3-yl)-2-fluorobenzamide]	114%	10700 nM
NC(=O)c1cc(-c2cccnc2[C@H](Cc2cc(F)cc(F)c2)NC(=O)Cn2nc(C(F)(F)F)c3c2CCC(=O)C3)ccc1F [Example 446, (S)-5-(2-(2-(3,5-difluorophenyl)-1-(2-(5-oxo-3-(trifluoromethyl)-4,5,6,7-tetrahydro-1H-indazol-1-yl)acetamido)ethyl)pyridin-3-yl)-2-fluorobenzamide]	79%	> 53200 nM
O=C(Cc1n[nH]c2ccccc12)NC(Cc1cc(F)cc(F)c1)c1nccnc1-c1ccc(Cl)cc1 (centres unmarked) [Example 447, N-(1-(3-(4-chlorophenyl)pyrazin-2-yl)-2-(3,5-difluorophenyl)ethyl)-2-(1H-indazol-3-yl)acetamide]	0%	13000 nM
NC(=O)c1cc(-c2cccnc2[C@H](Cc2cc(F)cc(F)c2)NC(=O)Cn2nc(C(F)(F)F)c3c2CCC(O)C3)ccc1F (stereo partly drawn) [Example 448, 5-(2-((1S)-2-(3,5-difluorophenyl)-1-(2-(5-hydroxy-3-(trifluoromethyl)-4,5,6,7-tetrahydro-1H-indazol-1-yl)acetamido)ethyl)pyridin-3-yl)-2-fluorobenzamide]	103%	> 53200 nM
CC1(C)OB(c2cn(CC(=O)N[C@@H](Cc3cc(F)cc(F)c3)c3ncccc3-c3ccc(F)c(C(N)=O)c3)nc2C(F)(F)F)OC1(C)C [Example 451B, (S)-5-(2-(2-(3,5-difluorophenyl)-1-(2-(4-(4,4,5,5-tetramethyl-1,3,2-dioxaborolan-2-yl)-3-(trifluoromethyl)-1H-pyrazol-1-yl)acetamido)ethyl)pyridin-3-yl)-2-fluorobenzamide]	1%	37100 nM
COC(=O)c1nn(CC(=O)N[C@@H](Cc2cc(F)cc(F)c2)c2ncccc2-c2ccc(F)c(C(N)=O)c2)c2c1COC2 [Example 452C, (S)-methyl 1-(2-((1-(3-(3-carbamoyl-4-fluorophenyl)pyridin-2-yl)-2-(3,5-difluorophenyl)ethyl)amino)-2-oxoethyl)-4,6-dihydro-1H-furo[3,4-c]pyrazole-3-carboxylate]	4%	9070 nM
COC(=O)c1c2c(nn1CC(=O)N[C@@H](Cc1cc(F)cc(F)c1)c1ncccc1-c1ccc(F)c(C(N)=O)c1)COC2 [Example 453, (S)-methyl 2-(2-((1-(3-(3-carbamoyl-4-fluorophenyl)pyridin-2-yl)-2-(3,5-difluorophenyl)ethyl)amino)-2-oxoethyl)-4,6-dihydro-2H-furo[3,4-c]pyrazole-3-carboxylate]	3%	> 53200 nM
COc1ccc2[nH]cc(CC(=O)NC(Cc3cc(F)cc(F)c3)c3nccnc3-c3ccc(Cl)cc3)c2n1 (centres unmarked) [Example 454, N-(1-(3-(4-chlorophenyl)pyrazin-2-yl)-2-(3,5-difluorophenyl)ethyl)-2-(5-methoxy-1H-pyrrolo[3,2-b]pyridin-3-yl)acetamide]	1%	11100 nM
NC(=O)c1cc(-c2cccnc2[C@H](Cc2cc(F)cc(F)c2)NC(=O)Cn2nc(C(=O)O)c3c2COC3)ccc1F [Example 456, (S)-1-(2-(1-(3-(3-carbamoyl-4-fluorophenyl)pyridin-2-yl)-2-(3,5-difluorophenyl)ethylamino)-2-oxoethyl)-4,6-dihydro-1H-furo[3,4-c]pyrazole-3-carboxylic acid]	0%	> 53200 nM
NC(=O)c1cc(-c2cccnc2[C@H](Cc2cc(F)cc(F)c2)NC(=O)Cn2nc(C(F)(F)F)c3c2C2CC2C3O)ccc1F (stereo partly drawn) [Example 457, 5-(2-((1S)-2-(3,5-difluorophenyl)-1-(2-(4-hydroxy-3-(trifluoromethyl)-4,4-a,5,5a-tetrahydro-1H-cyclopropa[4,5]cyclopenta[1,2-c]pyrazol-1-yl)acetamido)ethyl)pyridin-3-yl)-2-fluorobenzamide]	64%	> 53200 nM
